Measured values reported in EP2138174A1, “PHARMACEUTICAL COMPOSITION IN THE FORM OF A SUBLINGUAL TABLET CONSISTING OF A NON-STEROIDAL ANTI-INFLAMMATORY AGENT AND AN OPIATE ANALGESIC FOR PAIN MANAGEMENT” (priority 2007, dated 2008).
Several values for one entry are separate records, joined by “and”; a condition that tells them apart may be missing. Equal values may be shown once. Where a name gives a salt, the structure may show the parent alone. Read-outs that look alike come from different tables or passages of the source.

Key:
[1] = system: stomach; test: Gastrointestinal side effect measurement (gastric ulcers and erosions, relative to indomethacin); type: in vivo, Female rats from Wistar type; settings: for Gastric lesion ((Index of ulcers in drug tests / Index of ulcers in indomethacin tests) x 100): relative to indomethacin 20 mg/kg = 100, same doses and schedule as ulcer column
Description: Female rats from Wistar type (150-180 g body weight) were subject to fasting 24 hours before experimentation. […] 2.5 hours later, all the groups received a second administration of the same doses. Stomachs were examined at 5 hours after first treatment in the following way: animals were sacrificed and stomach was separated which was opened along its lower curvature, gently rinsing with formol (2%) and examined. Severity of induced gastric lesions with medicament was calculated as a ratio of number of lesions (stomach ulcer or erosion) caused by provided treatment and the number of lesions caused by indomethacin (100%). This was determined to reflect the side effects induced by medicament. The sum of the area of all the ulcers in the body of each animal was calculated and served as an ulcerative index. Gastric lesion percentage was calculated in the following way: % of gastric lesion = (IUM/IUI) × 100 [formula] wherein IUM is the Medicament Ulcerative Index on test (mm^2) and IUI is the Ulcerative Index for assayed Indomethacin (mm^2).
ABC was calculated for each drug combination and for each of the components. On the basis of addition of individual pharmacological effects (Seegers et al., 1981) an ABC equivalent to the sum was expected. If the sum of the corresponding individual ABC was higher than the theoretical sum, the result was determined as enhancement; when similar to the theoretical sum it was determined to show additive antinociceptive effects. ABC was obtained through the trapezoidal rule (Rowland and Trozer, 1989). All the values for each treatment were average ± S.E.M., for six animals. ABC values for drug combinations were compared with the values which were expected by using the Student test. […] A P<0.05 was determined as statistically significant.

[2] = system: rat arthritic pain model; test: PIFIR model: antinociceptive activity after intraarticular uric acid (rat arthritic pain model); type: in vivo, Wistar [CRl (WI) BR] female rats; set-up: antinociceptive efficiency (ABC): dose or concentration left out as unconfirmed
Description: A rat arthritic pain model was determined for said purpose. Data were interpreted by using a Surface Synergic Interaction Analysis (ISS) and an Isobolographic Analysis to determine the interaction nature. ISS is calculated from the total antinociceptive effect produced by a combination after a substraction of an antinociceptive effect produced separately by the drug.
For this trial, Wistar [CRl (WI) BR] female rats weighing 180-200 g. were weighed. Feed was maintained 12 hours before the water ad libitum access experiments. All the experimental procedures followed the recommendations of the Committee for Research and Ethical Issues of the International Association for the Study of Pain (Covino et al., 1980) and Guidelines on Ethical Standards for Investigations of Experimental Pain in Animals (Zimmermann, 1983) and they were carried out according to a protocol approved by the local Animal Ethics Committee. Animal number in experiment was kept at a […] and animals were maintained in a weathered room and light control with a 12-hour light/darkness cycle.
Uric acid was suspended in mineral oil; Ketorolac trometamine, tramadol hydrochloride and indomethacin were dissolved in carboxymethyl cellulose and orally administered.
Antinociceptive activity was determined by using a PIFIR model which has been described in detail (López-Muñoz et al., 1993). Animals were anesthetized with chamber ether (Pyrex-glass dryer saturated with ether vapor). Nociception was induced through an intraarticular injection (ia) of 0.5 mL uric acid suspended in mineral oil in the right-hind leg knee joint. Suspension was prepared by mixing 3.0 g of uric acid with 10 mL of mineral oil in a glass mortar with pestle (Pyrex). Intraarticular injection was carried out through the patellar ligament using a 1 mL glass syringe (Beckton Dickinson LTA, Brazil) with a 5 mm 24-needle. Immediately after, an electrode was implanted in the plantar surface of each hind claw between the plantar pads. Rats were allowed to recover from anesthesia and then a stainless steel cylinder was attached which was rotated at 4 rpm, forcing to the rats to walk for 2 minute periods every 30 minutes during 6.5 hours. It was not necessary a training period since rats learned it from the first minute. Contact time between each implanted electrode in rat limb and cylinder was registered. After the uric acid injection, rats progressively developed damaged limb dysfunction. […] This time was considered as zero time for antinoceptive effect measures; these effects are measured every 30 minutes during the following 4 hours. This allowed determining the course of the nociceptive effects in the same animal. Antinociception was considered as a recovery of contact time. Data are expressed as a performance percentage index (IF%; that is, contact time of injected leg divided by contact time of left leg, control, multiplied per 100). For the purpose of this trial, it was unavoidable to induce nociception in experimentation animals. However, care was taken in preventing an unnecessary suffering. All the experiments were performed between 7:00 A.M. and 2:00 P.M.
At the end of the study the rats were sacrificed.
Study data, tables and figures are expressed as IF%. IF% vs. time curves were prepared for each treatment and the corresponding time course was obtained. Antinociception was estimated as a recovery of IF%. Accumulated antinociceptive effect during all the observation period (4 hours) was determined as the area under the curve (ABC) for time course to obtain the dose-response curve and for analyzing the total antinociceptive effect obtained for the analgesic agent whether alone and in combination.
ABC was calculated for each drug combination and for each of the components. On the basis of addition of individual pharmacological effects (Seegers et al., 1981) an ABC equivalent to the sum was expected. […]

[3] = in vivo
Description: Blood samples were taken up to 24 hours after medicament delivery.
In order to determine whether bioavailability is existent or not between both medicaments, a logarithmic transformation of data was carried out and they were analyzed by means of the statistical package WinNonlinTM.
Confidence ranges proposed by FDA for semilogarithmic data in determining bioequivalency of two products are from 80 to 125%.

[4] = ketorolac, cited from earlier work
[5] = cited from earlier work
[6] = p.o., two administrations 2.5 hours apart, stomach examined at 5 hours, indomethacin 20 mg/kg, ketorolac 1 mg/kg, tramadol 17.8 mg/kg, combination as in title, six rats

COc1ccc2c(c1)c(CC(=O)O)c(C)n2C(=O)c1ccc(Cl)cc1 [Indomethacin]
No. of erosions [1, 6]: 30.0 ± 3.9
Ulcers (sum of the area of all ulcers) [1, 6]: 51.6 ± 3.4 mm^2
Gastric lesion ((Index of ulcers in drug tests / Index of ulcers in indomethacin tests) x 100) [1]: 100%

O=C(c1ccccc1)c1ccc2n1CCC2C(=O)O (centres unmarked) [Ketorolac, Ketorolac trometamine]
Emax ([2]; IF% time course, ketorolac 0.32 mg/kg p.o. alone): 33.7 ± 8.7%
ED50 ([2]; Rattus norvegicus, po, dose causing 50% of maximum possible effect, linear regression of dose-response curve, ± S.E.M., read-out: DE50 (the source's name)): 0.86 ± 0.1 mg/kg
ABC ([2]; ketorolac 0.32 mg/kg p.o. alone, 4 hours): 65.0 ± 9.6 au
ABC ([2]; ketorolac 0.56 mg/kg p.o. alone, 4 hours): 98.7 ± 15.5 au
ABC ([2]; ketorolac 1.78 mg/kg p.o. alone, 4 hours): 279.0 ± 15.5 au
antinociceptive effect (ABC) ([2]; ketorolac 3.16 mg/kg p.o., maximum used dose): 295.8 ± 14.9 au
effect on walking capacity of rats treated with vehicle ([2]; ketorolac 0.18 -5.62 mg/kg, tramadol 3.16-56.23 mg/kg, no uric acid, data not shown): did not affect the walking capacity
antinociceptive efficiency (ABC) ([2]; ketorolac p.o., area under IF% vs time curve, 4 hours, mean ± S.E.M., six animals): 295.8 ± 14.9 au
Ulcers (sum of the area of all ulcers) [1, 6]: 13.7 ± 2.7 mm^2 and 13.7 ± 2.7^c mm^2
Gastric lesion ((Index of ulcers in drug tests / Index of ulcers in indomethacin tests) x 100) [1]: 26.6%
Ratio (%Ref), LnAUCINF ([3]; human): 95.53 %Ref
Ratio (%Ref), Ln (Cmax) [3]: 72.78 %Ref
start of analgesic effect ([4]; intramuscular administration): 30 min
start of analgesic effect ([4]; oral administration): 10 min
dose removed by urine without any change ([5]; ketorolac, remainder excreted in feces): about 91%

COc1cccc(C2(O)CCCCC2CN(C)C)c1 (centres unmarked) [Tramadol, Tramadol Hydrochloride]
Antinociceptive effects (ABC) ([2]; rat, in vivo): 236.7 ± 11.0 au
Emax ([2]; rat, in vivo): 17.1 ± 9.1%
antinociceptive activity (ABC) ([2]; rat, in vivo): 207.7 ± 24.7 au
effect on walking capacity of rats treated with vehicle ([2]; rat, in vivo): did not affect the walking capacity
side effects (sedation, elation, dizziness and effects on walking capacity) ([2]; rat, in vivo): 50 % of animals
DE50 ([2]; rat, in vivo, po): 44.29 ± 0.06 mg/kg
No. of erosions ([1]; rat, in vivo): 0
Ulcers (sum of the area of all ulcers) ([1]; rat, in vivo): 0 mm^2
ulcers or erosions (in words) ([1]; rat, in vivo): did not cause ulcers or erosions
bioavailability ([5]; in vivo, po): 79%
time to maximum plasma concentrations ([5]; in vivo, po): 1.5 to 2 h
